Reference: ChEMBL document CHEMBL3421576, “N-((1,3-Diphenyl-1H-pyrazol-4-yl)methyl)anilines: A novel class of anti-RSV agents” (Bioorg Med Chem Lett, 2015)

Columns and labels:
Yellow fever virus = experiment: Antiviral activity against YFV infected in hamster BHK21 cells assessed as protection against viral-induced cytopathogenecity after 3 to 4 days by MTT method; assay type: functional, organism-based, BHK-21; details: Yellow fever virus, BHK-21
[1] = system: Bovine viral diarrhea virus 1; experiment: Antiviral activity against BVDV infected in bovine MDBK cells assessed as protection against viral-induced cytopathogenecity after 3 to 4 days by MTT method; assay type: functional, organism-based; details: Bovine viral diarrhea virus isolates and strains, MDBK
[2] = Selectivity index, ratio of CC50 for African green monkey Vero 76 cells to EC50 for RSV infected in African green monkey Vero 76 cells
[3] = Cytotoxicity against African green monkey Vero 76 cells assessed as cell viability after 48 to 96 hrs by MTT method; assay type: cell-based; details: chlorocebus sabaeus, Vero 76 cells
[4] = Cytotoxicity against hamster BHK21 cells assessed as cell viability after 72 hrs by MTT method; assay type: cell-based, Mesocricetus auratus, BHK-21
Coxsackievirus B5 = experiment: Antiviral activity against Coxsackievirus B5 infected in African green monkey Vero 76 cells after 3 days by plaque reduction assay; assay type: functional, organism-based; details: Enterovirus B, Vero, 72 h
Enterovirus C = experiment: Antiviral activity against Poliovirus Sb-1 infected in African green monkey Vero 76 cells after 2 days by plaque reduction assay; assay type: functional, organism-based; details: Enterovirus C, Sb-1, Vero, 48 h
Human alphaherpesvirus 1 = experiment: Antiviral activity against HSV1 infected in African green monkey Vero 76 cells after 3 days by plaque reduction assay; assay type: functional, organism-based; details: Human alphaherpesvirus 1, Vero, 72 h
[5] = Cytotoxicity against bovine MDBK cells assessed as cell viability after 72 hrs by MTT method; assay type: cell-based, Bos taurus; details: cattle
[6] = system: Human immunodeficiency virus 1; experiment: Antiviral activity against HIV1 infected in human MT4 cells assessed as protection against viral-induced cytopathogenecity after 4 days by MTT method; assay type: functional, organism-based; details: Human immunodeficiency virus 1, MT4, 96 h
[7] = system: Respiratory syncytial virus; experiment: Antiviral activity against RSV infected in African green monkey Vero 76 cells after 5 days by plaque reduction assay; assay type: functional, organism-based; details: human respiratory syncytial virus, Vero, 120 h
[8] = Cytotoxicity against human MT4 cells assessed as cell viability after 96 hrs by MTT method; assay type: cell-based
[9] = system: Vesicular stomatitis virus; experiment: Antiviral activity against VSV infected in African green monkey Vero 76 cells after 2 days by plaque reduction assay; assay type: functional, organism-based; details: Vesicular stomatitis virus, Vero, 48 h
Vaccinia virus = experiment: Antiviral activity against Vaccinia virus infected in African green monkey Vero 76 cells after 3 days by plaque reduction assay; assay type: functional, organism-based, Orthopoxvirus vaccinia; details: Orthopoxvirus vaccinia, Vero, 72 h
[10] = Selectivity index, ratio of CC50 for bovine MDBK cells to EC50 for BVDV infected in bovine MDBK cells
[11] = system: Mammalian orthoreovirus 1; experiment: Antiviral activity against Reovirus 1 infected in hamster BHK21 cells assessed as protection against viral-induced cytopathogenecity after 3 to 4 days by MTT method; assay type: functional, cell-based; details: Mammalian orthoreovirus 1, BHK-21
[12] = Selectivity index, ratio of CC50 for hamster BHK21 cells to EC50 for YFV infected in hamster BHK21 cells; parameters: species or system BHK-21

Row | Structure (SMILES) | EC50 (Yellow fever virus) [µM] | EC50 [1] [µM] | Ratio CC50/EC50 [2] | CC50 [3] [µM] | CC50 at 72 h [4] [µM] | EC50 (Coxsackievirus B5) [µM] | EC50 (Enterovirus C) [µM] | EC50 (Human alphaherpesvirus 1) [µM] | CC50 at 72 h [5] [µM] | EC50 [6] [µM] | EC50 [7] [µM] | CC50 at 96 h [8] [µM] | EC50 [9] [µM] | EC50 (Vaccinia virus) [µM] | Ratio CC50/EC50 [10] | EC50 [11] [µM] | Ratio CC50/EC50 [12]
1 | Clc1ccc(NCc2cn(-c3ccccc3)nc2-c2ccc(Cl)cc2)cc1 | > 73 | 31 | 6.9 | 90 | 73 | > 90 | > 90 | > 90 | > 100 | > 100 | 13 | > 100 | > 90 | > 90 | >3.2 | > 73 | –
2 | Brc1ccc(NCc2cn(-c3ccccc3)nc2-c2ccccc2)cc1 | 32 | 31 | 5.8 | 52 | > 100 | > 52 | > 52 | > 52 | > 100 | > 100 | 9 | > 100 | > 52 | > 52 | >3.2 | > 100 | >3.1
3 | Clc1ccc(NCc2cn(-c3ccccc3)nc2-c2ccccc2)cc1 | 29 | 29 | 10.8 | 65 | > 100 | > 65 | > 65 | > 65 | > 100 | > 100 | 6 | > 100 | > 65 | > 65 | >3.4 | > 100 | –
4 | Cc1ccc(NCc2cn(-c3ccccc3)nc2-c2ccccc2)cc1 | 65 | 53 | >3.6 | > 100 | > 100 | > 100 | > 100 | > 100 | > 100 | > 100 | 28 | > 100 | > 100 | > 100 | >1.9 | > 100 | >1.5
5 | Cc1ccc(NCc2cn(-c3ccccc3)nc2-c2ccc(C(F)(F)F)cc2)cc1 | > 88 | 54 | 3.3 | 82 | 88 | > 82 | > 82 | > 82 | > 100 | > 100 | 25 | > 100 | > 82 | > 82 | >1.8 | > 88 | –
